Test results taken from patent publication US5475029A, “Farnesyl compounds as cholesterol lowering agents” (The Board of Trustees of the Leland Stanford Junior …, priority 1993, dated 1995).

What was measured:
Format in all cases: cell-based
cholesterol biosynthesis = assay: [3H]acetate incorporation into cholesterol in CHO-HMGal cells
Description: Thin Layer Chromatography--TLC was performed using Analtech 250 μm silica gel G plates with a hexanes/diethyl ether (1:1) solvent system. Lipid standards were visualized by iodine staining. Bands were scraped from the plate and their radioactivity was measured.
Quantification of Radioactivity--Samples were suspended in 4 ml of scintillation fluid (Cytoscint from ICN). The radioactivity of the samples was measured using a Beckman LS-7500 scintillation counter.
Subsequently, the cells were labeled for 1,2, and 4 hours with [^3 H]acetate and harvested. The non-saponifiable lipid fraction from each cell type was extracted and separated by TLC. The radioactivity that co-migrated with cholesterol was measured and normalized for the amount of cellular protein.
Farnesyl acetate and ethyl farnesyl ether were only present during the labeling period so that any reduction in incorporation into cholesterol would be the result of inhibition and not a down regulation in HMG-CoA reductase.

HMGal [1] = assay: HMGal synthesis rate ([35S]methionine incorporation); conditions: 10 μg/ml
Description: Measurement of HMGal and HMG-CoA Reductase Synthesis Rates Cells plated into 60×15 mm dishes were grown in 5% LPS MEM with 0.25 mg/ml active geneticin for 24 hours. These cells were washed with PBS and grown for 24 hours in 5% LPS MEM supplemented with 0.25 mg/ml active geneticin, 10 μM compactin and 0.1 mM mevalonate. After 24 hours, the medium was removed, the cells were washed with PBS and the medium was replaced with methionine-free MEM supplemented with 5% LPS, 250 μg/ml of active geneticin, 10 μM compactin, and 0.1 mM mevalonate. In addition, 20 mM mevalonate or 10 μg/ml farnesyl acetate was included in those plates previously treated with these compounds. […] Cells were washed, lysed and the HMGal and HMG-CoA reductase proteins were immunoprecipitated, subjected to SDS-PAGE and quantified. […]
Farnesyl compounds reduce translation and stimulate degradation of HMG-CoA reductase and HMGal A reduction in HMGal specific activity triggered by the farnesyl compounds could have been the result of a decrease in HMGal synthesis, an increase in HMGal degradation, or a combination of changes in both the synthesis and degradation rates. In order to test whether the farnesyl compounds impact synthesis, the rates of HMGal, HMG-CoA reductase, and total cellular protein synthesis were measured by [^35 S]methionine incorporation in the presence and absence of 10 μg/ml farnesyl acetate.

HMGal [2] = assay: HMGal degradation rate (pulse-chase); conditions: 10 μg/ml during chase; untreated 6.4 hours
Description: (§1) Measurement of HMGal and HMG-CoA Reductase Degradation Rates Cells grown in 60×15 mm dishes were washed once with ice-cold PBS and starved for 1 hour in 1 ml of methionine-free MEM supplemented with 5% LPS, 250 μg/ml of active geneticin, 10 μM compactin, and 0.1 mM mevalonate. These cells were radio-labeled for 2 hours in 300 μl of the methionine-free starvation medium containing 100 μCi of Tran^35 S-label (>1,000 Ci/mmol). Cells were incubated in an MEM-based chase medium containing 2 mM methionine, 5% LPS, 250 μg/ml of active geneticin, 10 μM compactin, and 0.1 mM mevalonate. During the chase period, some plates also had either 20 mM mevalonate, 10 μg/ml farnesyl acetate or 10 μg/ml ethyl farnesyl ether added to them as indicated in the figure legend. Following the chase, cells were washed, lysed and the HMGal and HMG-CoA reductase proteins were immunoprecipitated, subjected to SDS-PAGE and quantified.
(§2) In order to test whether the farnesyl compounds impact degradation, the rates of degradation for HMGal, HMG-CoA reductase, and total cellular protein were measured in the presence and absence of 10 μg/ml farnesyl acetate and ethyl farnesyl ether.

HMGal [3] = assay: HMGal activity (in vitro β-galactosidase specific activity) in CHO-HMGal cells
Description: Cell Culture--All cells were grown as monolayers at 37° C. in an atmosphere of 5% CO2. CHO-HMGal cells were grown in minimal essential medium (MEM) supplemented with 0.25 mg/ml active geneticin and either 5% fetal calf serum (FCS) or 5% lipid-poor fetal calf serum (LPS).
Stock Solutions--Stock solutions of farnesyl acetate, ethyl farnesyl ether, and the mixture of 25-hydroxycholesterol with cholesterol were all made in 100% ethanol at 100 times the final concentration. In all experiments in which these compounds were used, there is a final concentration of 1% ethanol in the medium. For control, cells grown with "no additives" or "mevalonate" 100% ethanol was added to the medium to bring the final concentration of ethanol to 1%. The mevalonate stock solution was prepared at a concentration of 2M in 20 mM potassium phosphate buffer (pH 4.5).
β-galactosidase Specific Activity--In vitro β-galactosidase activity was measured using the substrate, o-nitrophenyl-β-D-galactopyranoside. Specific activities were calculated using protein concentration values.
Farnesyl acetate and ethyl farnesyl ether stimulate a reduction in HMGal activity--In an attempt to identify tile non-sterol metabolite(s) that triggers the down regulation of HMG-CoA reductase, five commercially available isoprenoid compounds were tested for their effects on HMGal activity in CHO-HMGal cells. Each of tile compounds tested closely resembled one of tile naturally occurring isoprenoid pyrophosphates, except that the pyrophosphate group had been replaced by either a hydroxyl or an […] group. The compounds tested included: 3-methyl-2-buten-1-ol, the alcohol of the five carbon isoprenoid-dimethylallyl pyrophosphate (a naturally occurring isomer of isopentenyl pyrophosphate); geraniol and geranyl acetate, the alcohol and the […] of the ten carbon isoprenoid-geranyl pyrophosphate; and farnesol and farnesyl acetate, the alcohol and the […] of the fifteen carbon isoprenoid-farnesyl pyrophosphate.
To confirm that the reduction in HMGal activity was the result of a regulatory function specifically targeting the membrane domain of HMGal, the effects of farnesyl acetate on β-galactosidase activity were measured in vitro for both CHO-HMGal cells and CHO-Gal cells. The CHO-Gal cells had been stably transfected with a construct identical to the HMGal construct (using the same vector, promoter, and 5' and 3' flanking regions) except that the construct in the CHO-Gal cells codes for a soluble β-galactosidase protein instead of the HMGal fusion protein with the membrane domain of HMG-CoA reductase. In this experiment, the CHO-Gal cells served to control for any artifacts farnesyl acetate might cause in the β-galactosidase assay or any nonspecific effects farnesyl acetate might have on the rates of protein synthesis or degradation.

total cellular protein = assay: Total cellular protein degradation; conditions: 10 μg/ml
Description: as §1, §2

Structure (SMILES): CC(=O)OCC=C(C)CCC=C(C)CCC=C(C)C [farnesyl acetate]
- reduction in [3H]acetate incorporation into cholesterol (cholesterol biosynthesis; 24 hours pretreatment, then labeled 1, 2 and 4 hours, CHO-HMGal cells): 80%
- reduction in [3H]acetate incorporation into cholesterol (cholesterol biosynthesis; compound present only during the labeling period, no pretreatment): 89%
- reduction in the rate of HMGal synthesis (HMGal [1]): 80%
- half-life of HMGal (HMGal [2]): 3.9 h
- reduction of the half-life of HMGal (HMGal [2]): 40%
- reduction of HMGal activity (HMGal [3]; 10 μg/ml, 24 hour treatment): 70%
- reduction of HMGal activity (HMGal [3]; 20 μg/ml): 80%
- reduction in HMGal activity at concentrations below the levels toxic to the cells (HMGal [3]; five isoprenoid compounds tested): stimulated a reduction in HMGal activity
- effect on the degradation of total cellular protein (total cellular protein): Neither farnesyl compound had a significant effect
